The record followed here is US10670605B2, “Cysteine reactive probes and uses thereof” (The Scripps Research Institute, priority 2015, dated 2020).

What all share (experiment): Competitive isoTOP-ABPP in situ (fragment-treated cells)
Format in all cases: cell-based

The target in test [1] is cysteines in MDA-MB-231 and Ramos cells (Homo sapiens, UniProt Q15003).
Test [2] addresses cysteines in MDA-MB-231 and Ramos cells (Homo sapiens, UniProt Q5UIP0).
Test [3] deals with cysteines in MDA-MB-231 and Ramos cells (Homo sapiens, UniProt Q6PCB5). As to conditions: 200 μM, insitu.
Test [4] deals with T1, cysteines in MDA-MB-231 and Ramos cells (Homo sapiens, UniProt Q9UL40).
T1 sequence (Q9UL40 1-294): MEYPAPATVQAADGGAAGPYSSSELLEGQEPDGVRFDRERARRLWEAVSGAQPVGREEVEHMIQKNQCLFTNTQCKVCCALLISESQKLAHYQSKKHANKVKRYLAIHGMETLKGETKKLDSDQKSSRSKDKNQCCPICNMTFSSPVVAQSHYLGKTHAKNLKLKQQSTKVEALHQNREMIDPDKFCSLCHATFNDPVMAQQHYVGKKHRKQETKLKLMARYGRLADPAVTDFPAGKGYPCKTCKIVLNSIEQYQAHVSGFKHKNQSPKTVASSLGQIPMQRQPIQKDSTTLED
As to conditions: 200 μM, insitu.

Test [5] addresses T2, cysteines in MDA-MB-231 and Ramos cells (Homo sapiens, UniProt Q16667).
T2 sequence (Q16667 1-212): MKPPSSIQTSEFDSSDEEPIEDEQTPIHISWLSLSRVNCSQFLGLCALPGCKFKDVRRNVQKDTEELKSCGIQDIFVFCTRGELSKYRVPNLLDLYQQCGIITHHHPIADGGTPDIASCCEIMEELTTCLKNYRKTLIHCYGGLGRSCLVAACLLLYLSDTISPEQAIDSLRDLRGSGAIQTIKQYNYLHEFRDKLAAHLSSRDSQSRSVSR
As to conditions: 200 μM, insitu.

The target of test [6] is T3, cysteines in MDA-MB-231 and Ramos cells (Homo sapiens, UniProt Q7Z5K2).
T3 sequence (Q7Z5K2 1-1190): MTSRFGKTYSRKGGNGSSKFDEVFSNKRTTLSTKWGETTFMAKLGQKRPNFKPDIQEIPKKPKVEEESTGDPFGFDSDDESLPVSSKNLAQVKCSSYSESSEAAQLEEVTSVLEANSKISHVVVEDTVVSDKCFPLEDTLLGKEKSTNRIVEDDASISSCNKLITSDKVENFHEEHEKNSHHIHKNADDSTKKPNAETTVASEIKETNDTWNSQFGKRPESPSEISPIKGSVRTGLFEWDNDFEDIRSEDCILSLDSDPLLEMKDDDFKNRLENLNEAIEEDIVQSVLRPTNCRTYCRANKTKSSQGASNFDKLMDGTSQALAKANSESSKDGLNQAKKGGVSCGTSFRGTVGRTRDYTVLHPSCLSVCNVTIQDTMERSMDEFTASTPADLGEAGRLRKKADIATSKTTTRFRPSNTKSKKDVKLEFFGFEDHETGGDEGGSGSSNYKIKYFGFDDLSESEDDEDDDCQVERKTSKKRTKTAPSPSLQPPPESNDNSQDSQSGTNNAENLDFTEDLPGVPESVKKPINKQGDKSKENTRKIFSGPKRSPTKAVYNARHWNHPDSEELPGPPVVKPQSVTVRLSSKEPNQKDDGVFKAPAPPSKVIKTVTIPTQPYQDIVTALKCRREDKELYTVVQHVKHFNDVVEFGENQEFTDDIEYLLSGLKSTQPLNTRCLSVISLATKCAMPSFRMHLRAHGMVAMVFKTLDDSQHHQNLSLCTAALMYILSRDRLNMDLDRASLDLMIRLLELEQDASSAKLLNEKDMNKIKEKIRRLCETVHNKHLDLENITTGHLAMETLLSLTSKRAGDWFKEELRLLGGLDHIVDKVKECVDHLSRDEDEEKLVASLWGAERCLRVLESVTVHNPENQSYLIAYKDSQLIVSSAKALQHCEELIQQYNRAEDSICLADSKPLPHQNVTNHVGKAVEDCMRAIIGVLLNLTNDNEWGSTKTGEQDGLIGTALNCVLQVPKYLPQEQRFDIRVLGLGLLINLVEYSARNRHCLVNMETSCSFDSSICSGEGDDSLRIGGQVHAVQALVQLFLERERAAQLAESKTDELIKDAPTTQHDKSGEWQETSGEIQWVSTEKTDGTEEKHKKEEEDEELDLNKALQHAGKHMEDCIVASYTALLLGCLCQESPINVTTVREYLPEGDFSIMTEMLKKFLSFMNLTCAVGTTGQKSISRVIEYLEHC

Test [7] addresses T4, cysteines in MDA-MB-231 and Ramos cells (Homo sapiens, UniProt Q8TD19).
T4 sequence (Q8TD19 1-979): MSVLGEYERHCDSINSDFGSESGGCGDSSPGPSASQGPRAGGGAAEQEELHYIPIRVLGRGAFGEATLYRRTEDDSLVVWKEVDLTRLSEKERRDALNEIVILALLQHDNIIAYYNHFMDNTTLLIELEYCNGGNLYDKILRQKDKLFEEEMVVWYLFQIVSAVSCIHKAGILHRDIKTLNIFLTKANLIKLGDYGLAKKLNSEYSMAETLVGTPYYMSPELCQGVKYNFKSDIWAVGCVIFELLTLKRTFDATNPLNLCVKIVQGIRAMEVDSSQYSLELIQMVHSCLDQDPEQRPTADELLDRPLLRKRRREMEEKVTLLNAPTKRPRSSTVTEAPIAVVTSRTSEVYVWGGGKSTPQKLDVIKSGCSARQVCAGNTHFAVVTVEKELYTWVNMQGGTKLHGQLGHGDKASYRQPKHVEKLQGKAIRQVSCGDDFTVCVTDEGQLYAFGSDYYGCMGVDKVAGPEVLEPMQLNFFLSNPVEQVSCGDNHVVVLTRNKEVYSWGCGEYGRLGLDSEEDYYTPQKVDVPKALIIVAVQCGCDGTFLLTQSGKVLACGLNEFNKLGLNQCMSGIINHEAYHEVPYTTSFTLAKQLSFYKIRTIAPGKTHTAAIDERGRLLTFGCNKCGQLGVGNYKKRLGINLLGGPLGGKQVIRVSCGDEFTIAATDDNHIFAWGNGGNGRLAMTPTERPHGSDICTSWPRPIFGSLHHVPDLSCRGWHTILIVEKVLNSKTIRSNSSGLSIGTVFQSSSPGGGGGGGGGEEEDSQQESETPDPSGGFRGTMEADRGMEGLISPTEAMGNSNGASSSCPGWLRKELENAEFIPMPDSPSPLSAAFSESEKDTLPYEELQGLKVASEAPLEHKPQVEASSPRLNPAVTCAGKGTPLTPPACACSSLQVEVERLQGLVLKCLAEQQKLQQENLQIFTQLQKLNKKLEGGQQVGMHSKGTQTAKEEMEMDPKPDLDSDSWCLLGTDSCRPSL
As to conditions: 200 μM, insitu.

cysteines in MDA-MB-231 and Ramos cells (Homo sapiens, UniProt Q6PCB5), sequence (Q6PCB5 whole entry): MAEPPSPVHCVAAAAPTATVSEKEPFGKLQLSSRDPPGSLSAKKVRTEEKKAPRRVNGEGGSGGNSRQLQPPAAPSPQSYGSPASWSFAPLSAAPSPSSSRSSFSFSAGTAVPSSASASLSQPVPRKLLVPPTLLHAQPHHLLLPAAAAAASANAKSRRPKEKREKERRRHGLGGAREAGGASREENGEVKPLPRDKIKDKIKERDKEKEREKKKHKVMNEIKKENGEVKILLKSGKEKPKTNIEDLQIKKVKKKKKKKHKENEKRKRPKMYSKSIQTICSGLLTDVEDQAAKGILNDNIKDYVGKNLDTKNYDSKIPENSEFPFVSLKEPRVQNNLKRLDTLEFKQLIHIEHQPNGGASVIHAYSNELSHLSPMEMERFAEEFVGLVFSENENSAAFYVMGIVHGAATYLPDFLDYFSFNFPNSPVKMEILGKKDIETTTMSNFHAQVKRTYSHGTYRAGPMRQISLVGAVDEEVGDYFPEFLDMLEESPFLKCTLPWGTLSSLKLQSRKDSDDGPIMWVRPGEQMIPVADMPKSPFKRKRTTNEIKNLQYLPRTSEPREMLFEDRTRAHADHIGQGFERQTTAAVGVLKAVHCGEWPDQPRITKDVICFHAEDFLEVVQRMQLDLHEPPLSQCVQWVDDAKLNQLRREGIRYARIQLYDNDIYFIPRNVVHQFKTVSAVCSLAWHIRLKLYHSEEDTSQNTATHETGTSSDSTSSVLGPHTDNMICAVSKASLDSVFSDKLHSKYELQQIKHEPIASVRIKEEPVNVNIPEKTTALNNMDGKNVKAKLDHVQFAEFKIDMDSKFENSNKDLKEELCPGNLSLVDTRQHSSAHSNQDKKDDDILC
cysteines in MDA-MB-231 and Ramos cells (Homo sapiens, UniProt Q15003), sequence (Q15003 whole entry): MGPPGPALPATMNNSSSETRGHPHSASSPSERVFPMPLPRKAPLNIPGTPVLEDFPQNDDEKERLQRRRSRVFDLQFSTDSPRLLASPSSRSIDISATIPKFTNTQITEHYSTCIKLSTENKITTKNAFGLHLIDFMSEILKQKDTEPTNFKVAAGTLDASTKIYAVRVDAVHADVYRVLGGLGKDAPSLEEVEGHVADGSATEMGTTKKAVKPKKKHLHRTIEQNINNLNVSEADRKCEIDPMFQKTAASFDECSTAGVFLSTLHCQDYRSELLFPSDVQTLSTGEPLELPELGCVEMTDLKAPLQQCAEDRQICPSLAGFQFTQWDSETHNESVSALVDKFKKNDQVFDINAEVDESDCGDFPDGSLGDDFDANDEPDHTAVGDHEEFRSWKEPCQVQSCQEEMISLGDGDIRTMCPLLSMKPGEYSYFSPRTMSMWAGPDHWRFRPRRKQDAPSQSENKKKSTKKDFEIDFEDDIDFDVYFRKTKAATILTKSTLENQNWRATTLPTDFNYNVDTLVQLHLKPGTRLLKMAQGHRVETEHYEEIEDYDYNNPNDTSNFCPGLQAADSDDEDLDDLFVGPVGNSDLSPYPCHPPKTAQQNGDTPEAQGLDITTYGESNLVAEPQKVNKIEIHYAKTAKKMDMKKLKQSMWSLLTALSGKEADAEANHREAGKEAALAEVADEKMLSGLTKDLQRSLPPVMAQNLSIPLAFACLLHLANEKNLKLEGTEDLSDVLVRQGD
cysteines in MDA-MB-231 and Ramos cells (Homo sapiens, UniProt Q5UIP0), sequence (Q5UIP0 whole entry): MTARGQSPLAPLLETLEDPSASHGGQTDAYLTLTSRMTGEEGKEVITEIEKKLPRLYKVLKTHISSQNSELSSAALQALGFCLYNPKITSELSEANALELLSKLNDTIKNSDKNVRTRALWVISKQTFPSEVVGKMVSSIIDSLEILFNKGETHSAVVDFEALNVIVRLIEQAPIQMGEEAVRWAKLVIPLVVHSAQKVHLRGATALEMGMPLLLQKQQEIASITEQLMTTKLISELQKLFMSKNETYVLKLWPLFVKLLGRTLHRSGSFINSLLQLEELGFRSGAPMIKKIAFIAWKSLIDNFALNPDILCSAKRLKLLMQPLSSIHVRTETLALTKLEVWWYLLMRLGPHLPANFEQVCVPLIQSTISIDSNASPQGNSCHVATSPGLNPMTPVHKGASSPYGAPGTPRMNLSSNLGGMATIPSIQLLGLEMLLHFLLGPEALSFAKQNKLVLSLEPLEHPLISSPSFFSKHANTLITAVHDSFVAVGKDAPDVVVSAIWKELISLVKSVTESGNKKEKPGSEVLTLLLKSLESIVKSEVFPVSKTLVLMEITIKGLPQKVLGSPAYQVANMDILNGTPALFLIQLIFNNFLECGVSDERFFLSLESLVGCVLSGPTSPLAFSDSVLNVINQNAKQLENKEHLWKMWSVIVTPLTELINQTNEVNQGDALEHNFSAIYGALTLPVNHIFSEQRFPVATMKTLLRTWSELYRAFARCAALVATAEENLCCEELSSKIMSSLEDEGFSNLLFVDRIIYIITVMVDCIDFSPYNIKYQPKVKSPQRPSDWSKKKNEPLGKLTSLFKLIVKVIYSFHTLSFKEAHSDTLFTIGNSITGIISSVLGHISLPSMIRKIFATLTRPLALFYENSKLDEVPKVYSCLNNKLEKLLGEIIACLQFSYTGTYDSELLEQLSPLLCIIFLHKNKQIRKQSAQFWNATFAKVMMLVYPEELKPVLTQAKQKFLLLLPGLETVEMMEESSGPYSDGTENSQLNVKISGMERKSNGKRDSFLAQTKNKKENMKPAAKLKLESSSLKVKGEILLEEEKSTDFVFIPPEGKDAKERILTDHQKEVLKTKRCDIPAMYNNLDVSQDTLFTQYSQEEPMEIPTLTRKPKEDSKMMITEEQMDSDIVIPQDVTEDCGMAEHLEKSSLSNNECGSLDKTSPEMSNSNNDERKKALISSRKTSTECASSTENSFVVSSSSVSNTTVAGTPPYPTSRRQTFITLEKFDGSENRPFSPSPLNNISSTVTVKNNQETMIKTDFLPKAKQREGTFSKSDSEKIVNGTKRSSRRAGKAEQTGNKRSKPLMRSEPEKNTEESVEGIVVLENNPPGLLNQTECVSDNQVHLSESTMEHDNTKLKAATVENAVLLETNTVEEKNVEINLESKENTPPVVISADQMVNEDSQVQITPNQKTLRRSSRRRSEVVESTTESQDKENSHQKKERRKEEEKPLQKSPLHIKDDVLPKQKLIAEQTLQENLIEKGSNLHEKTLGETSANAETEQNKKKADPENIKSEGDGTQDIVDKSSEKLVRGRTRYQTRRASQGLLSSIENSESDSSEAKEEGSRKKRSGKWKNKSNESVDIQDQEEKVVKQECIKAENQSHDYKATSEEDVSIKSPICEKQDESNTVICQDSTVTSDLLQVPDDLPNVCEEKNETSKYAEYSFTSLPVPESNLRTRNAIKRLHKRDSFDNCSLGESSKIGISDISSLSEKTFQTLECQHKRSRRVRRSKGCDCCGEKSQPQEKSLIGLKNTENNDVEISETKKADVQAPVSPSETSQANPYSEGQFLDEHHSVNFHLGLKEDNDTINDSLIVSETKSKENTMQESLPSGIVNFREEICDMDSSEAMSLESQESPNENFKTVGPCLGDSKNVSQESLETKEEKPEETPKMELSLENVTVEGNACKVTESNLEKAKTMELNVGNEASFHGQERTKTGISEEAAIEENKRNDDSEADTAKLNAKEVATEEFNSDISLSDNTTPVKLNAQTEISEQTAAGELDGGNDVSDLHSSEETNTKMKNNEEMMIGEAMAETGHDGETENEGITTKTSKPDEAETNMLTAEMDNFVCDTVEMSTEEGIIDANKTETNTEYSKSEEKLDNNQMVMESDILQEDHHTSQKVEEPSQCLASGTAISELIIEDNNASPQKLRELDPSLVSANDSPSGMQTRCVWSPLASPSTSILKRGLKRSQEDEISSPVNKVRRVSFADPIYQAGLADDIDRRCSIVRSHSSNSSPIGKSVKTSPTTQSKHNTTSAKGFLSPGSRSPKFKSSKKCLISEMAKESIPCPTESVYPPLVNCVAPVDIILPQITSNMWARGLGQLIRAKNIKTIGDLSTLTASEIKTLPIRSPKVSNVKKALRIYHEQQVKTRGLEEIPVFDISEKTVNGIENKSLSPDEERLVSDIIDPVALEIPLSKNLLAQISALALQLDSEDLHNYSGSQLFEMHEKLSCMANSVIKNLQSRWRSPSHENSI

For `COc1ccc(C2CC(c3cccs3)=NN2C(=O)CCl)cc1` (stereo not drawn) [compound 4], in test [1] (100 μM in situ 231), the “isoTOP-ABPP reactivity Q15003_C418 NCAPH” value is given as 20.0. In addition, in test [2] (100 μM in situ 231), the “isoTOP-ABPP reactivity Q5UIP0_C2298 RIF1” value came out at 20.0.
For `CC1CCc2ccccc2N1C(=O)CCl` (stereo not drawn) [compound 45], in test [1] (200 μM, insitu, 231), the “isoTOP-ABPP ratio Q15003_C418” value came out at 20.0.
As for `O=C(CCl)NC(=O)NC12CC3CC(CC(C3)C1)C2` [compound 12], in test [3] (231), the “isoTOP-ABPP ratio, cysteine Q6PCB5_C280” value amounted to 20.0. The “isoTOP-ABPP ratio, cysteine Q9UL40_C68” value in test [4] (231) was 20.0.
As to `O=C(CCl)N1CCN(S(=O)(=O)c2ccccc2F)CC1` [compound 10], the “isoTOP-ABPP ratio, cysteine Q16667_C39” value in test [5] (231) is 2.3. For the same molecule, in test [2] (200 μM, insitu, 231), the “isoTOP-ABPP ratio, cysteine Q5UIP0_C2298” value is 20.0. For the same molecule, in test [6] (200 μM, insitu, 231), the “isoTOP-ABPP ratio, cysteine Q7Z5K2_C160” value is on record as 20.0.
In the case of `O=C(CCl)N1CCN(CC(=O)N2CCOCC2)CC1` [compound 29], the “isoTOP-ABPP ratio Q15003_C418” value in test [1] (200 μM, insitu, ramos) is listed as 1.4. Further, in test [5] (ramos), the “isoTOP-ABPP ratio Q16667_C39” value was 1.7. The “isoTOP-ABPP ratio Q6PCB5_C280” value in test [3] (ramos) amounted to 1.4. The “isoTOP-ABPP ratio Q7Z5K2_C160” value in test [6] (200 μM, insitu, ramos) is reported as 0.7. Moreover, the “isoTOP-ABPP ratio Q9UL40_C68” value in test [4] (ramos) stood at 2.4.
Consider `CC(C)CCOCCNC(=O)CCl` [compound 27], for which, in test [3] (231), the “isoTOP-ABPP ratio Q6PCB5_C280” value worked out at 1.0. Also, the “isoTOP-ABPP ratio Q9UL40_C68” value in test [4] (231) stood at 1.9.
Consider `O=C(CCl)NC12CC3CC(CC(C3)C1)C2` [compound 21], for which the “isoTOP-ABPP ratio, cysteine Q16667_C39” value in test [5] (231) came out at 0.8. In test [2] (200 μM, insitu, 231), the “isoTOP-ABPP ratio, cysteine Q5UIP0_C2298” value is 0.9. Moreover, the “isoTOP-ABPP ratio, cysteine Q8TD19_C623” value in test [7] (231) amounted to 0.8.
As to `COc1ccc2c(c1)CCCN2C(=O)CCl` [compound 2], in test [1] (200 μM, insitu, 231), the “isoTOP-ABPP reactivity Q15003_C418 NCAPH” value was 20.0.
As to `Cn1cc(S(=O)(=O)N2CCOCC2)cc1C(=O)NC(=O)CCl` [compound 11], in test [1] (100 μM in situ 231), the “isoTOP-ABPP ratio, cysteine Q15003_C418” value is 1 .6. Moreover, in test [2] (100 μM in situ 231), the “isoTOP-ABPP ratio, cysteine Q5UIP0_C2298” value was 1.3. Moreover, the “isoTOP-ABPP ratio, cysteine Q7Z5K2_C160” value in test [6] (100 μM in situ 231) came out at 1.0.
Regarding `O=C(CCl)NCCc1c[nH]c2ccccc12` [compound 13], in test [5] (ramos), the “isoTOP-ABPP ratio, cysteine Q16667_C39” value was 1.2. For the same molecule, the “isoTOP-ABPP ratio, cysteine Q6PCB5_C280” value in test [3] (ramos) came out at 0.8. The “isoTOP-ABPP ratio, cysteine Q8TD19_C623” value in test [7] (ramos) is listed as 20.0. For the same molecule, the “isoTOP-ABPP ratio, cysteine Q9UL40_C68” value in test [4] (ramos) turned out to be 20.0.
For `Cc1ccc(C=C(C#N)C(=O)NCCN2CCOCC2)cc1` [compound 41], the “isoTOP-ABPP ratio Q7Z5K2_C160” value in test [6] (200 μM, insitu, 231) is given as 1.0. Besides, the “isoTOP-ABPP ratio Q8TD19_C623” value in test [7] (231) is reported as 0.6.
Regarding `C=CC(=O)N(Cc1cccnc1)c1cc(C(F)(F)F)cc(C(F)(F)F)c1` [compound 31], the “isoTOP-ABPP ratio Q8TD19_C623” value came to 0.7 in test [7] (231) and 1.4 in test [7] (ramos).
